From patent publication US7932270B2 (Cytokinetics, Inc., priority 2006, dated 2011) come the findings set out here.

Each structure is given as a SMILES string.

For this assay, the target named is T1, chicken gizzard smooth muscle myosin subfragment-1 chemically crosslinked to cardiac or skeletal actin (Gallus gallus, UniProt P10587).
T1 construct: chicken gizzard smooth muscle myosin subfragment-1; from tissue; host or cells: chicken gizzard
T1 sequence (P02607 2-151): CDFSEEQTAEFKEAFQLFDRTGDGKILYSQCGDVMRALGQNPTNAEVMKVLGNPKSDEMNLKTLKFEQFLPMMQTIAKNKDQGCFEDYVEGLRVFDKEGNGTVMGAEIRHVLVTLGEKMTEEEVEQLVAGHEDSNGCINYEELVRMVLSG
T1 sequence (P10587 84-789): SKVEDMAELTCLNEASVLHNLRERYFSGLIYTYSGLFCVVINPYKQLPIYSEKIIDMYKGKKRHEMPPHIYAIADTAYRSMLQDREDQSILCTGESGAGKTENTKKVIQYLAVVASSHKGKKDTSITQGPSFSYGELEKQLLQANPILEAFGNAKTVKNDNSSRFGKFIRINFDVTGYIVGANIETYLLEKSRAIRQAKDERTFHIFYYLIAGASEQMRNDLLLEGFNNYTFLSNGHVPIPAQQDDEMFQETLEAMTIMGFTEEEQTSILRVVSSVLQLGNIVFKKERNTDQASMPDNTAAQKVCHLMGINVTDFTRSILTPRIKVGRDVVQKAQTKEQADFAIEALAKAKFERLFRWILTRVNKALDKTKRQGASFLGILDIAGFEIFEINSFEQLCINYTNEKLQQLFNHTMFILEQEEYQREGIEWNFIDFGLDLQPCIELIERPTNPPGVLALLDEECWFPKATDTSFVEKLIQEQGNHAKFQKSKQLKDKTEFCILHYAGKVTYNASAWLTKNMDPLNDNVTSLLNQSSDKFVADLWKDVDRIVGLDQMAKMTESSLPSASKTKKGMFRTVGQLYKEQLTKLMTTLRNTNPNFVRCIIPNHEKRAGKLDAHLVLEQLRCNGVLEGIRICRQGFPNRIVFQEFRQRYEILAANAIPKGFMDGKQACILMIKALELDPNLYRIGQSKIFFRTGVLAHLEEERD
Kind of assay: Smooth muscle myosin ATPase dose response assay (pyruvate kinase/horseradish peroxidase/pyruvate oxidase-coupled, amplex red fluorescence). It is filed as biochemical. The following applies: read-out: IC50 Arithmetic Mean. The method in brief:
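Readout is amplex red signal from coupled ATPase of actin-crosslinked gizzard myosin S1 (0.15 mM ATP, 12 mM K-PIPES, pH 7.00). IC50 is the half-maximal activity point of a four-parameter Hill fit.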
With `N#Cc1ccccc1-c1ccc(C(=O)NC[C@H]2CCCC(=O)N2)c(NCCc2cccc(F)c2)n1` [N-[((2R)-6-oxo(2-piperidyl))methyl](6-(2-cyanophenyl)-2-{[2-(3-fluorophenyl)ethyl]amino}(3-pyridyl))carboxamide], the IC50 came to 0.015 µM.
As for `N#Cc1cc(C(=O)NCc2cccnc2CN)c(NCCc2cccc(F)c2)nc1-c1cn[nH]c1` [N-{[2-(aminomethyl)(3-pyridyl)]methyl}(5-cyano-2-{[2-(3-fluorophenyl)ethyl]amino}-6-pyrazol-4-yl(3-pyridyl))carboxamide], the IC50 worked out at 0.058 µM.
Regarding `N#Cc1ccccc1-c1ccc(C(=O)NC2CCC(C(N)=O)C2)c(NCCc2cccc(F)c2)n1` (stereo not shown) [3-[(6-(2-cyanophenyl)-2-{[2-(3-fluorophenyl)ethyl]amino}-3-pyridyl)carbonylamino]cyclopentanecarboxamide], the IC50 was 11.6 µM.
The result for `COC(=O)[C@@H](CNC(=O)c1cc(F)c(-c2cnn(C)c2)nc1NCCc1cccc(F)c1)NC(=O)OC(C)(C)C` [methyl (2R)-2-[(tert-butoxy)carbonylamino]-3-[(5-fluoro-2-{[2-(3-fluorophenyl)ethyl]amino}-6-(1-methylpyrazol-4-yl)(3-pyridyl))carbonylamino]propanoate] reads 90.8 µM; that for `Cn1cc(-c2nc(NCCc3cccc(F)c3)c(C(=O)NC[C@H]3CCN3C(=O)C(C)(C)O)cc2F)cn1` [N-{[(2R)-1-(2-hydroxy-2-methylpropanoyl)azetidin-2-yl]methyl}(5-fluoro-2-{[2-(3-fluorophenyl)ethyl]amino}-6-(1-methylpyrazol-4-yl)(3-pyridyl))carboxamide], 0.141 µM; that for `N#Cc1ccccc1-c1ccc(C(=O)NCc2cccnc2)c(NCCc2cccc(F)c2)n1` [(6-(2-cyanophenyl)-2-{[2-(3-fluorophenyl)ethyl]amino}(3-pyridyl))-N-(3-pyridylmethyl)carboxamide], 0.024 µM.
The result for `CNC(=O)[C@H](CN)NC(=O)c1ccc(-c2ccccc2C#N)nc1NCCc1cccc(F)c1` [(2S)-3-amino-2-[(6-(2-cyanophenyl)-2-{[2-(3-fluorophenyl)ethyl]amino}(3-pyridyl))carbonylamino]-N-methylpropanamide] reads 3.45 µM.
To `NCCCN1C(=O)CC[C@@H]1CNC(=O)c1ccc(-c2cn[nH]c2)nc1NCCc1cccc(F)c1` [N-{[(2R)-1-(3-aminopropyl)-5-oxopyrrolidin-2-yl]methyl}(2-{[2-(3-fluorophenyl)ethyl]amino}-6-pyrazol-4-yl(3-pyridyl))carboxamide] belongs 0.966 µM.
`N#Cc1ccccc1-c1ccc(C(=O)NCc2cncc(CN)c2)c(NCCc2cccc(F)c2)n1` [N-{[5-(aminomethyl)(3-pyridyl)]methyl}(6-(2-cyanophenyl)-2-{[2-(3-fluorophenyl)ethyl]amino}(3-pyridyl))carboxamide]: the concentration for half-maximal inhibition (IC50) stood at 0.323 µM.
To `CC(=O)N1CCN(C)C[C@@H]1CNC(=O)c1ccc(-c2ccccc2C#N)nc1NCCc1cccc(F)c1` [N-[((2S)-1-acetyl-4-methylpiperazin-2-yl)methyl](6-(2-cyanophenyl)-2-{[2-(3-fluorophenyl)ethyl]amino}(3-pyridyl))carboxamide] belongs 6.79 µM; to `Cc1n[nH]c(C)c1CCNc1nc(-c2ccccc2)ccc1C(=O)NCc1cccnc1` [(2-{[2-(3,5-dimethylpyrazol-4-yl)ethyl]amino}-6-phenyl(3-pyridyl))-N-(3-pyridylmethyl)carboxamide], 5.94 µM; to `N#Cc1ccccc1-c1ccc(C(=O)NCC2CCCN2)c(NCCc2cccc(F)c2)n1` (stereo not shown) [(6-(2-cyanophenyl)-2-{[2-(3-fluorophenyl)ethyl]amino}(3-pyridyl))-N-(pyrrolidin-2-ylmethyl)carboxamide], 0.439 µM.
On to `O=C(NCc1cccnc1)c1ccc(-c2ccccc2)nc1NCCC1=CCCCC1` [{2-[(2-cyclohex-1-enylethyl)amino]-6-phenyl(3-pyridyl)}-N-(3-pyridylmethyl)carboxamide], for which the IC50 was 0.532 µM.

One may read the IC50 as the concentration that inhibits the measured activity by half.
